Read-outs that look alike come from different tables or passages of the source.
Legend:
Botrytis cinerae = assay: Fungicidal activity against cucumber gray mold rot (CGM) disease, control value; assay type: in vivo; details: 100 ppm; for pest or weed control at 100 ppm: Botrytis, read-out: CGM control value (C.V.)
Phytophthora infestans = assay: whole plant or invertebrate; assay type: in vivo; details: for TLB control value (C.V.): tomato late blight; for pest or weed control at 2 ppm / pest or weed control at 10 ppm / pest or weed control at 50 ppm / pest or weed control at 100 ppm: Phytophthora infestans, in Solanum lycopersicum, read-out: TLB control value (C.V.)
Rhizoctonia solani AG-1 = assay: Fungicidal activity against rice sheath blight (RSB) disease, control value; details: for RSB control value (C.V.): 100 ppm, rice sheath blight; for pest or weed control at 2 ppm / pest or weed control at 10 ppm / pest or weed control at 50 ppm / pest or weed control at 100 ppm: Rhizoctonia solani, AG1, in Oryza sativa, read-out: RSB control value (C.V.)
Erysiphae graminis = assay: Fungicidal activity against barley powdery mildew (BPM) disease, control value; assay type: in vivo; details: for BPM control value (C.V.) / pest or weed control at 100 ppm: 100 ppm; for pest or weed control at 2 ppm / pest or weed control at 10 ppm / pest or weed control at 50 ppm / pest or weed control at 100 ppm: 168 h, read-out: BPM control value (C.V.)
[1] = system: Pyricularia oryzae Carvara KA301; assay: whole plant or invertebrate; assay type: in vivo; details: for RCB control value (C.V.): rice blast; for pest or weed control at 2 ppm / pest or weed control at 10 ppm / pest or weed control at 50 ppm / pest or weed control at 100 ppm: Pyricularia oryzae, read-out: RCB control value (C.V.)
Puccinia recondita = assay: Fungicidal activity against wheat leaf rust (WLR) disease, control value; assay type: in vivo; details: for WLR control value (C.V.) / pest or weed control at 100 ppm: 100 ppm; for pest or weed control at 2 ppm / pest or weed control at 10 ppm / pest or weed control at 50 ppm / pest or weed control at 100 ppm: read-out: WLR control value (C.V.)
[2] = Hordeum vulgare, barley powdery mildew

Compound | CGM control value (C.V.) (Botrytis cinerae; cucumber gray mold rot) [%] | TLB control value (C.V.) (Phytophthora infestans; 50 ppm) [%] | TLB control value (C.V.) (Phytophthora infestans; 100 ppm) [%] | RSB control value (C.V.) (Rhizoctonia solani AG-1) [%] | BPM control value (C.V.) (Erysiphae graminis; barley powdery mildew) [%] | RCB control value (C.V.) ([1]; 50 ppm) [%] | RCB control value (C.V.) ([1]; 100 ppm) [%] | WLR control value (C.V.) (Puccinia recondita; wheat leaf rust) [%] | pest or weed control at 2 ppm (Phytophthora infestans) [%] | pest or weed control at 10 ppm (Phytophthora infestans) [%] | pest or weed control at 50 ppm (Phytophthora infestans) [%] | pest or weed control at 100 ppm (Phytophthora infestans) [%] | pest or weed control at 2 ppm (Rhizoctonia solani AG-1) [%] | pest or weed control at 10 ppm (Rhizoctonia solani AG-1) [%] | pest or weed control at 50 ppm (Rhizoctonia solani AG-1) [%] | pest or weed control at 100 ppm (Rhizoctonia solani AG-1) [%] | pest or weed control at 2 ppm [1] [%] | pest or weed control at 10 ppm [1] [%] | pest or weed control at 50 ppm [1] [%] | pest or weed control at 100 ppm [1] [%] | other results
CNC(=O)/C(=N/OC)c1ccccc1COc1cccc(C=C(F)Cl)c1 [Example 12, (2E)-2-(2-((3-(2-chloro-2-difluorovinyl)phenoxy)methyl)phenyl)-2-methoxyimino-N-methylacetamide] | 40 | 55 | 93 | 15 | 80 | 90 | 97 | 82 | – | – | – | – | – | – | – | – | – | – | – | – | –
CNC(=O)/C(=N/OC)c1ccccc1COc1ccc(C=C(F)Cl)cc1 [Example 14, (2E)-2-(2-((4-(2-chloro-2-difluorovinyl)phenoxy)methyl)phenyl)-2-methoxyimino-N-methylacetamide] | 40 | 35 | 98 | 15 | 60 | 90 | 95 | 72 | – | – | – | – | – | – | – | – | – | – | – | – | –
CO/N=C(/C(=O)OC)c1ccccc1COc1cc(C=C(Br)Br)ccc1OC [Example 71, methyl-(E)-2-(2-((5-(2,2-dibromovinyl)-2-methoxyphenoxy)methyl)phenyl)-2-methoxyiminoacetate] | – | – | – | – | – | – | – | – | 70 | 90 | 98 | 100 | 65 | 98 | 100 | 100 | 30 | 90 | 100 | 100 | pest or weed control at 100 ppm (Botrytis cinerae): 65%; pest or weed control at 2 ppm (Erysiphae graminis): 95%; pest or weed control at 10 ppm (Erysiphae graminis): 100%; pest or weed control at 50 ppm (Erysiphae graminis): 100%; pest or weed control at 100 ppm (Erysiphae graminis): 100%; pest or weed control at 2 ppm (Puccinia recondita; Puccinia recondita): 95%; pest or weed control at 10 ppm (Puccinia recondita; Puccinia recondita): 100%; pest or weed control at 50 ppm (Puccinia recondita; Puccinia recondita): 100%; pest or weed control at 100 ppm (Puccinia recondita; Puccinia recondita): 100%
CO/N=C(/C(=O)OC)c1ccccc1COc1ccc(C=C(Br)Br)c(Cl)c1 [Example 81, methyl-(E)-2-(2-((4-(2,2-dibromovinyl)-3-chlorophenoxy)methyl)phenyl)-2-methoxyiminoacetate] | – | – | – | – | – | – | – | – | 60 | 90 | 98 | 100 | 55 | 98 | 100 | 100 | 70 | 90 | 100 | 100 | pest or weed control at 100 ppm (Botrytis cinerae): 60%; pest or weed control at 2 ppm (Erysiphae graminis): 98%; pest or weed control at 10 ppm (Erysiphae graminis): 100%; pest or weed control at 50 ppm (Erysiphae graminis): 100%; pest or weed control at 100 ppm (Erysiphae graminis): 100%; pest or weed control at 2 ppm (Puccinia recondita; Puccinia recondita): 95%; pest or weed control at 10 ppm (Puccinia recondita; Puccinia recondita): 100%; pest or weed control at 50 ppm (Puccinia recondita; Puccinia recondita): 100%; pest or weed control at 100 ppm (Puccinia recondita; Puccinia recondita): 100%
CO/N=C(/C(=O)OC)c1ccccc1COc1ccc(C)cc1C=C(Cl)Cl [Example 45, methyl-(E)-2-(2-((2-(2,2-dichlorovinyl)-4-methylphenoxy)methyl)phenyl)-2-methoxyiminoacetate] | – | – | – | – | – | – | – | – | 92 | 98 | 100 | 100 | 100 | 100 | 100 | 100 | 100 | 100 | 100 | 100 | pest or weed control at 100 ppm (Botrytis cinerae; cucumber gray mold rot): 35%; pest or weed control at 2 ppm (Erysiphae graminis; [2]): 100%; pest or weed control at 10 ppm (Erysiphae graminis; [2]): 100%; pest or weed control at 50 ppm (Erysiphae graminis; [2]): 100%; pest or weed control at 100 ppm (Erysiphae graminis; [2]): 100%; pest or weed control at 2 ppm (Puccinia recondita; wheat leaf rust): 100%; pest or weed control at 10 ppm (Puccinia recondita; wheat leaf rust): 100%; pest or weed control at 50 ppm (Puccinia recondita; wheat leaf rust): 100%; pest or weed control at 100 ppm (Puccinia recondita; wheat leaf rust): 100%
